Reference: ChEMBL document CHEMBL4428131, “Scaffold-hopping from xanthines to tricyclic guanines: A case study of dipeptidyl peptidase 4 (DPP4) inhibitors” (Bioorg Med Chem, 2016)

Molecular target: T1, Prolyl endopeptidase FAP (Homo sapiens, UniProt Q12884)
T1 sequence (Q12884 whole entry): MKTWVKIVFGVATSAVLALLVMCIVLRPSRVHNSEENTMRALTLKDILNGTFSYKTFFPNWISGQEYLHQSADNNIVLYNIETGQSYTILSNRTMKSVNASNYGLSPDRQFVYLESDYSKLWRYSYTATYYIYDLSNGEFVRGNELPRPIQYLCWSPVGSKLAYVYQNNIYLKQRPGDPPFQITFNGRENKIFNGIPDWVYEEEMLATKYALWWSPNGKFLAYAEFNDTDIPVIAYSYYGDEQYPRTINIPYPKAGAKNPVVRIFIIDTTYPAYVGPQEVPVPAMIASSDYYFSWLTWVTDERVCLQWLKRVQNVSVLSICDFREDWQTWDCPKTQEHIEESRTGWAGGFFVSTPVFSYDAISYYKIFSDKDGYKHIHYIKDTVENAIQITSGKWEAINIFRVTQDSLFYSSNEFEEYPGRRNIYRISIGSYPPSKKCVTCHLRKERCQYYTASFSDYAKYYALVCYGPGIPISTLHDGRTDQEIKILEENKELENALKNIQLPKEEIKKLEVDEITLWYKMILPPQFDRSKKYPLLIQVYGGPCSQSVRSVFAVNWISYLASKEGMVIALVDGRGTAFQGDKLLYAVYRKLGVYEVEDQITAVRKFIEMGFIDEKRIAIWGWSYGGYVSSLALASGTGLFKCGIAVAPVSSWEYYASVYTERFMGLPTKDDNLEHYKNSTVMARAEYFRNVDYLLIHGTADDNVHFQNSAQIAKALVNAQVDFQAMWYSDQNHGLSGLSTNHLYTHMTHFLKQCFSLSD
Assay: Inhibition of FAP (unknown origin) using Nle-Pro-AMC as substrate preincubated for 20 mins followed by substrate addition measured after 40 mins by fluorescence assay

SMILES | IC50 [µM]
Cc1nc(CN2C(=O)c3c(nc(N4CCC[C@@H](N)C4)n3Cc3cc(F)ccc3F)N3CCN=C23)nc2ccccc12 | 9.92
CC#CCn1c(N2CCC[C@@H](N)C2)nc2c1C(=O)N(Cc1ccc(OC)cc1)C1=NCCCN12 | > 50
CC#CCn1c(N2CCC[C@@H](N)C2)nc2c1C(=O)N(Cc1cccc3ccccc13)C1=NCCCN12 | 22.4
CC#CCn1c(N2CCC[C@@H](N)C2)nc2c1C(=O)N(Cc1ccccc1C#N)C1=NCCN12 | > 100
Cc1nc(CN2C(=O)c3c(nc(N4CCC[C@@H](N)C4)n3Cc3ccccc3C#N)N3CCN=C23)nc2ccccc12 | 15.3
CC#CCn1c(N2CCC[C@@H](N)C2)nc2c1C(=O)N(Cc1cccc(C#N)c1)C1=NCCN12 | 78.5
CC#CCn1c(N2CCC[C@@H](N)C2)nc2c1C(=O)N(Cc1ccc(C#N)cc1)C1=NCCN12 | 88.3

Results, then the compound that gave them:

IC50 [µM] | SMILES
0.367 | CC#CCn1c(N2CCC[C@@H](N)C2)nc2c1C(=O)N(Cc1nc(C)c3ccccc3n1)C1=NCCN12
0.268 | CC#CCn1c(N2CCC[C@@H](N)C2)nc2c1C(=O)N(Cc1nc(C)c3ccccc3n1)C1=NCCCN12
0.755 | CC(C)=CCn1c(N2CCC[C@@H](N)C2)nc2c1C(=O)N(Cc1nc(C)c3ccccc3n1)C1=NCCN12
4.62 | Cc1nc(CN2C(=O)c3c(nc(N4CCC[C@@H](N)C4)n3Cc3cccc(F)c3)N3CCN=C23)nc2ccccc12
4.64 | Cc1nc(CN2C(=O)c3c(nc(N4CCC[C@@H](N)C4)n3Cc3ccccc3)N3CCN=C23)nc2ccccc12
3.12 | Cc1nc(CN2C(=O)c3c(nc(N4CCC[C@@H](N)C4)n3CC3CC3)N3CCN=C23)nc2ccccc12
14.7 | Cc1nc(CN2C(=O)c3c(nc(N4CCC[C@@H](N)C4)n3CC3CC3(F)F)N3CCN=C23)nc2ccccc12 (stereo partly drawn)
3.05 | Cc1nc(CN2C(=O)c3c(nc(N4CCC[C@@H](N)C4)n3CC3CCC3)N3CCN=C23)nc2ccccc12
0.107 | Cc1nc(CN2C(=O)c3c(nc(N4CCC[C@@H](N)C4)n3CC(=O)C3CC3)N3CCN=C23)nc2ccccc12

Molecular target: Dipeptidyl peptidase 4 (Homo sapiens, UniProt P27487)
Assay: Inhibition of DPP4 (unknown origin) using Gly-Pro-AMC as substrate preincubated for 30 mins followed by substrate addition measured after 50 mins by fluorescence assay

Sequence of Dipeptidyl peptidase 4 (P27487 whole entry): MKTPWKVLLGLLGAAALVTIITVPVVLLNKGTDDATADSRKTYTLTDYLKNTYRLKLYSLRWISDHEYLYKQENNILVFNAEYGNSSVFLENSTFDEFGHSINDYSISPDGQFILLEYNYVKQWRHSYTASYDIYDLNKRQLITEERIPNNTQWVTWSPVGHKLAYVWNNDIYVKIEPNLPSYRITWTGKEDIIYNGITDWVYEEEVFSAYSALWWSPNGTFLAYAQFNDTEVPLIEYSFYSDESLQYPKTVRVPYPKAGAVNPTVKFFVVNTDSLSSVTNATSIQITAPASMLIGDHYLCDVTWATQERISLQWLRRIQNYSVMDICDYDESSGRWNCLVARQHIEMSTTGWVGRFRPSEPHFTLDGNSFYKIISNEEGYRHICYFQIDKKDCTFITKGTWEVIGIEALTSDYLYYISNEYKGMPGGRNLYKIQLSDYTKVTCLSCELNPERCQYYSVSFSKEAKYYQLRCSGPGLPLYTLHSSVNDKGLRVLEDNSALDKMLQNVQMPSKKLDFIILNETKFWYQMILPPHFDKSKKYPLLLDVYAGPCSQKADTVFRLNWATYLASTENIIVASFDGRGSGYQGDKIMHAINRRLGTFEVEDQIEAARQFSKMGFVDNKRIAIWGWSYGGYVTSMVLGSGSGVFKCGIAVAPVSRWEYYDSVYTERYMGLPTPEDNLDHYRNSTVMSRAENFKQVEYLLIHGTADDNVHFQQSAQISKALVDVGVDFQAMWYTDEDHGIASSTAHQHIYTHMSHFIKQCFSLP

IC50 [µM] | SMILES
> 10 | CC#CCn1c(N2CCC[C@@H](N)C2)nc2c1c(=O)nc1n2CCCN1CCCc1ccccc1
> 10 | CC#CCn1c(N2CCC[C@@H](N)C2)nc2c1C(=O)N(CCCc1ccccc1)C1=NCCCN12
